In the experiment the target is T1, SARM1 (50-724) (Homo sapiens, UniProt Q6SZW1).
T1 construct: Purified SARM1 (50-724) with a final concentration of 2 nM was pre-incubated with a test compound
T1 sequence (Q6SZW1 50-724): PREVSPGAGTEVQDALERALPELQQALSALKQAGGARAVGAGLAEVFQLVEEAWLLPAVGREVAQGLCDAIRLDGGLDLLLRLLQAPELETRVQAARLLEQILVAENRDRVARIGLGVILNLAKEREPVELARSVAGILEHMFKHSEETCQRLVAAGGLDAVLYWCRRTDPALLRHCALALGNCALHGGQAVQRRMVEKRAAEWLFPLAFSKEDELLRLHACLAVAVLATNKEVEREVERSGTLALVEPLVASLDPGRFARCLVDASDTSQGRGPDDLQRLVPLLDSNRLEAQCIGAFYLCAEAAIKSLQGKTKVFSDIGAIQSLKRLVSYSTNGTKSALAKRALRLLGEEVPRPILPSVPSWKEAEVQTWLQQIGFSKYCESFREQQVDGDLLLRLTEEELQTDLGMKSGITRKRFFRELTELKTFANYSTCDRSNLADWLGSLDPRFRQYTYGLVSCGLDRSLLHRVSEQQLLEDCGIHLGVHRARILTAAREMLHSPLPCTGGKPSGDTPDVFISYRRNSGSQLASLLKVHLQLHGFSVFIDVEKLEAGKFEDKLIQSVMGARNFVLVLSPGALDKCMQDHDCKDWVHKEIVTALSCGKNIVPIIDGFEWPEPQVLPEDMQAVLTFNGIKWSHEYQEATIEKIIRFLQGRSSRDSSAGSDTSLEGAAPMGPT
Description: SARM1 (50-724) enzymatic assay (LC-MS/MS). It counts as biochemical. The conditions noted are these: Purified SARM1 (50-724) 2 nM, NMN as activator, NAD+ as substrate, 1 h at room temperature, read-out: IC50 (SARM1 inhibitory activity). The procedure, abridged:
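Reaction buffer was Dulbecco's PBS. Compound and 2 nM human SARM1 (50-724) were pre-incubated 15 min at room temperature, then […] NAD^+ and 200 µM NMN activator were added for 1 h at room temperature. Acetonitrile (70%) stop, LC-MS/MS read-out, IC50 values.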

The structures appear in SMILES notation. Some results are limits rather than exact numbers.

For `FC(F)(F)c1ccc2[nH]c(-c3nnc(S)n3-c3cccc(Cl)c3Cl)nc2c1` [Example 108, 4-(2,3-dichlorophenyl)-5-(5-(trifluoromethyl)-1H-benzo[d]imidazol-2-yl)-4H-1,2,4-triazole-3-thiol], the half-inhibitory concentration (IC50) is 100 to 500 nM.

For the molecule `Cc1ccc2[nH]c(C3=C(C4CCCC4)COC3=O)nc2c1` [Compound 9, 4-Cyclopentyl-3-(5-methyl-1H-benzo[d]imidazol-2-yl)furan-2(5H)-one], the IC50 was greater than 1000 nM.

On to `Cc1ccc2[nH]c(C3CCCN3c3cccc(Cl)c3Cl)nc2c1` (centres unmarked) [Compound 13, 2-(1-(2,3-Dichlorophenyl)pyrrolidin-2-yl)-5-methyl-1H-benzo[d]imidazole], for which the IC50 is greater than 1000 nM.

As to `N#Cc1c(-c2cnccc2-c2cccc(Cl)c2Cl)[nH]c2ccc(C(F)(F)F)cc12` [Example 47, 2-(4-(2,3-dichlorophenyl)pyridin-3-yl)-5-(trifluoromethyl)-1H-indole-3-carbonitrile], the IC50 was no more than 100 nM.

With `Fc1cc(C(F)(F)F)cc2nc(-c3nnccc3-c3cnccc3C(F)(F)F)[nH]c12` [Compound 303, 7-Fluoro-5-(trifluoromethyl)-2-(4-(4-(trifluoromethyl)pyridin-3-yl)pyridazin-3-yl)-1H-benzo[d]imidazole], the IC50 is no more than 100 nM.

For the molecule `CC1(O)CC(Cc2nnc(-c3nc4cc(C(F)(F)F)ccc4[nH]3)n2-c2cccc(F)c2Cl)C1` (centres unmarked) [Compound 421, 3-((4-(2-chloro-3-fluorophenyl)-5-(5-(trifluoromethyl)-1H-benzo[d]imidazol-2-yl)-4H-1,2,4-triazol-3-yl)methyl)-1-methylcyclobutan-1-ol], the concentration for half-maximal inhibition (IC50) is no more than 100 nM.

As for `FC(F)C12CC(n3cnnc3-c3nc4cc(C(F)(F)F)ccc4[nH]3)(C1)C2` [Compound 214, 2-(4-(3-(difluoromethyl)bicyclo[1.1.1]pentan-1-yl)-4H-1,2,4-triazol-3-yl)-5-(trifluoromethyl)-1H-benzo[d]imidazole], the IC50 was greater than 1000 nM.

`OC1CN(Cc2nnc(-c3nc4cc(C(F)(F)F)ccc4[nH]3)n2-c2cccc(Cl)c2Cl)C1` [Compound 144, 1-((4-(2,3-dichlorophenyl)-5-(5-(trifluoromethyl)-1H-benzo[d]imidazol-2-yl)-4H-1,2,4-triazol-3-yl)methyl)azetidin-3-ol]: the half-inhibitory concentration (IC50) was no more than 100 nM.

Turning to `CS(=O)(=O)Cn1cc(-c2nc3cc(C(F)(F)F)ccc3[nH]2)c(-c2cccc(Cl)c2Cl)n1` [Compound 438, 2-(3-(2,3-dichlorophenyl)-1-((methylsulfonyl)methyl)-1H-pyrazol-4-yl)-5-(trifluoromethyl)-1H-benzo[d]imidazole], the IC50 is greater than 1000 nM.

On to `Cn1cc(OC(F)(F)F)c(-n2cnnc2-c2nc3cc(C(F)(F)F)cc(F)c3[nH]2)cc1=O` [Compound 222, 4-(3-(7-fluoro-5-(trifluoromethyl)-1H-benzo[d]imidazol-2-yl)-4H-1,2,4-triazol-4-yl)-1-methyl-5-(trifluoromethoxy)pyridin-2(1H)-one], for which the IC50 is no more than 100 nM.

Take `Cn1cc(-c2ccccc2Cl)c(-c2nc3cc(C(F)(F)F)ccc3[nH]2)cc1=O` [Example 75]: the IC50 lay within 100 to 500 nM.

For the molecule `Fc1cccc(-n2c(Cn3cccn3)nnc2-c2nc3cc(C(F)(F)F)ccc3[nH]2)c1Cl` [Compound 381, 2-(5-((1H-pyrazol-1-yl)methyl)-4-(2-chloro-3-fluorophenyl)-4H-1,2,4-triazol-3-yl)-5-(trifluoromethyl)-1H-benzo[d]imidazole], the 50% inhibitory concentration (IC50) lay in the range of 100 to 500 nM.

Turning to `FC(F)(F)c1ccc2[nH]c(-c3nncn3-c3cnccc3C(F)(F)F)cc2n1` [Compound 292, 5-(trifluoromethyl)-2-(4-(4-(trifluoromethyl)pyridin-3-yl)-4H-1,2,4-triazol-3-yl)-1H-pyrrolo[3,2-b]pyridine], the IC50 is no more than 100 nM.

Consider `Cc1ccc2[nH]c(-n3c(-c4cccc(Cl)c4Cl)n[nH]c3=O)nc2c1` [Compound 31, 5-(2,3-dichlorophenyl)-4-(5-methyl-1H-benzo[d]imidazol-2-yl)-2,4-dihydro-3H-1,2,4-triazol-3-one], for which the IC50 is greater than 1000 nM.

With `FC(F)(F)c1ccc2[nH]c(-c3nnc(Cl)cc3-c3ccccc3Cl)nc2c1` [Compound 407, 2-(6-chloro-4-(2-chlorophenyl)pyridazin-3-yl)-5-(trifluoromethyl)-1H-benzo[d]imidazole], the IC50 was no more than 100 nM.

Regarding `CC(O)C(C)(C)c1ccc2[nH]c(-c3nncn3-c3cccc(Cl)c3Cl)nc2c1` (centres unmarked) [Compound 140, 3-(2-(4-(2,3-dichlorophenyl)-4H-1,2,4-triazol-3-yl)-1H-benzo[d]imidazol-5-yl)-3-methylbutan-2-ol], the concentration for half-maximal inhibition (IC50) was no more than 100 nM.

`O=c1[nH]ccc(-c2cccc(Cl)c2Cl)c1-c1nc2cc(C(F)(F)F)ccc2[nH]1` [Example 35]: the 50% inhibitory concentration (IC50) lay within 100 to 500 nM.

`CC(C)(O)c1cc(F)c2[nH]c(-c3nnccc3-c3cnccc3C(F)(F)F)nc2c1` [Compound 418, 2-(4-fluoro-2-(4-(4-(trifluoromethyl)pyridin-3-yl)pyridazin-3-yl)-1H-benzo[d]imidazol-6-yl)propan-2-ol]: the half-maximal inhibitory concentration (IC50) is no more than 100 nM.

Regarding `CC1(c2ccc3[nH]c(-c4nncn4-c4cccc(F)c4Cl)nc3c2)CC(O)C1` (centres unmarked) [Compound 191, 3-(2-(4-(2-chloro-3-fluorophenyl)-4H-1,2,4-triazol-3-yl)-1H-benzo[d]imidazol-5-yl)-3-methylcyclobutan-1-ol], the IC50 was no more than 100 nM.

Consider `Oc1cc(-c2ccccc2Cl)c(-c2nc3cc(C(F)(F)F)ccc3[nH]2)nn1` [Compound 406, 5-(2-chlorophenyl)-6-(5-(trifluoromethyl)-1H-benzo[d]imidazol-2-yl)pyridazin-3-ol], for which the half-maximal inhibitory concentration (IC50) was 100 to 500 nM.

As to `O=C1CN(c2ccccc2)C(c2nc3cc(C(F)(F)F)ccc3[nH]2)CN1` (centres unmarked) [Compound 369, 4-phenyl-5-(5-(trifluoromethyl)-1H-benzo[d]imidazol-2-yl)piperazin-2-one], the concentration for half-maximal inhibition (IC50) is greater than 1000 nM.

Consider `FC(F)(F)c1ccncc1-n1cnnc1-c1nc2cc(C34COC(C3)C4)ccc2[nH]1` [Compound 362, 5-(2-oxabicyclo[2.1.1]hexan-4-yl)-2-[4-[4-(trifluoromethyl)-3-pyridyl]-1,2,4-triazol-3-yl]-1H-benzimidazole], for which the IC50 fell in the range of 100 to 500 nM.

`Cc1ccc2[nH]c(-c3ccnn3C3CCCC3)nc2c1` [Compound 4, 2-(2-cyclopentylpyrazol-3-yl)-5-methyl-1H-benzimidazole]: the concentration for half-maximal inhibition (IC50) lay in the range of 500 to 1000 nM.

For `Cc1nccc(C(F)(F)F)c1-n1cnnc1-c1nc2cc(C(F)(F)F)ccc2[nH]1` [Compound 246, 2-(4-(2-methyl-4-(trifluoromethyl)pyridin-3-yl)-4H-1,2,4-triazol-3-yl)-5-(trifluoromethyl)-1H-benzo[d]imidazole], the 50% inhibitory concentration (IC50) is no more than 100 nM.

Take `FC(F)(F)c1ccc2[nH]c(-c3nnc(OC4CSC4)n3-c3cccc(Cl)c3Cl)nc2c1` [Compound 131]: the IC50 is greater than 1000 nM.

On to `FC(F)(F)Oc1ccc(OC2COC2)cc1-n1cnnc1-c1nc2cc(C(F)(F)F)ccc2[nH]1` [Compound 271, 2-(4-(5-(oxetan-3-yloxy)-2-(trifluoromethoxy)phenyl)-4H-1,2,4-triazol-3-yl)-5-(trifluoromethyl)-1H-benzo[d]imidazole], for which the half-inhibitory concentration (IC50) is no more than 100 nM.

For the molecule `CC(CO)c1ccc2[nH]c(-c3nncn3-c3cccc(Cl)c3Cl)nc2c1` (centres unmarked) [Example 104, 2-(2-(4-(2,3-dichlorophenyl)-4H-1,2,4-triazol-3-yl)-1H-benzo[d]imidazol-5-yl)propan-1-ol], the half-inhibitory concentration (IC50) was no more than 100 nM.

Take `O=C1CCCN1c1ccc2[nH]c(-c3nncn3-c3cccc(Cl)c3Cl)nc2c1` [Example 137, 1-(2-(4-(2,3-dichlorophenyl)-4H-1,2,4-triazol-3-yl)-1H-benzo[d]imidazol-5-yl)pyrrolidin-2-one]: the IC50 is greater than 1000 nM.

Turning to `CC(C)(O)c1ccc2[nH]c(-c3nnccc3-c3cnccc3C(F)(F)F)nc2c1F` [Compound 343, 2-(4-Fluoro-2-(4-(4-(trifluoromethyl)pyridin-3-yl)pyridazin-3-yl)-1H-benzo[d]imidazol-5-yl)propan-2-ol], the 50% inhibitory concentration (IC50) is no more than 100 nM.

For `FC(F)(F)c1ccc2[nH]c(C3=C(c4ccccc4Cl)CSC3)nc2c1` [Compound 335, 2-(4-(2-chlorophenyl)-2,5-dihydrothiophen-3-yl)-5-(trifluoromethyl)-1H-benzo[d]imidazole], the IC50 fell in the range of 500 to 1000 nM.

Take `CC(Cc1nccs1)c1cc(F)c2[nH]c(-c3nncn3-c3cnccc3C(F)(F)F)nc2c1` (centres unmarked) [Compound 465, 2-(2-(7-fluoro-2-(4-(4-(trifluoromethyl)pyridin-3-yl)-4H-1,2,4-triazol-3-yl)-1H-benzo[d]imidazol-5-yl)propyl)thiazole]: the concentration for half-maximal inhibition (IC50) is no more than 100 nM.

On to `CS(=O)(=O)c1c(Br)ccc2[nH]c(-c3nncn3-c3cccc(Cl)c3Cl)nc12` [Example 95, 5-bromo-2-(4-(2,3-dichlorophenyl)-4H-1,2,4-triazol-3-yl)-4-(methylsulfonyl)-1H-benzo[d]imidazole], for which the IC50 is greater than 1000 nM.

The values are drawn from patent US20260258064A1 (SIRONAX LTD., priority 2023, published 2026).
